pIC50: −log10 of the molar value. Structures can show the parent of a compound that is named as a salt.
Experiments:
[1] = target: T1, DYRK1B (Homo sapiens, UniProt Q9Y463); assay: DYRK1B in vitro kinase assay (ADP-Glo); format: biochemical; conditions: ADP-Glo assay, ATP 15 μM (Km), substrate 7 μM, enzyme 1 nM or 0.3 nM, 1 h, rt; read-out: DYRK1B IC50
T1 construct: purchased Carna Bioscence (Carna Biosciences) 04-131
Procedure: The compounds of the present invention were tested for their inhibitory activity against DYRK1A and DYRK1B kinases once or several times. When tested more than once, the data are reported herein as average value, wherein the average value, also referred to as the mean value, represents the sum of obtained values divided by the number of times tested. DYRK-inhibitory activity of the compounds of the present invention was tested using the ADP-Glo™ assay as described in the following paragraphs. The procedure for determining the IC50 values with the ADP-Glo™ assay in in vitro kinase assays consists of two parts: […] Kinase reaction performed under optimized conditions; 2. Detection of ADP as a product of the reaction using ADP-Glo™ system (Promega). The tested compounds indicated in Table 5 below were dissolved in DMSO, then transferred to the V-bottom PP plate to perform nine serial dilutions (in order to obtain dose-response curves) in 25% DMSO, as indicated in Table 5 below. The optimized conditions for performing DYRK1B in vitro kinase assay were as follows: [table] For compound testing, the following protocol was used: two mixes were prepared on ice, Mix 1 containing substrate, ATP and reaction buffer and Mix 2 containing reaction buffer and the kinase. 15 μL per well of Mix 1 was transferred to wells of a 96-well plate. […] Total reaction volume was 30 μL per well. The experiment was performed in duplicate for each data point being examined. Dose response curve for the positive control was carried out on each assay plate by adding the reference inhibitory compound staurosporine. For each test, three controls were also included: (i) 30 μL of the reaction mixture containing: reaction buffer, ATP, kinase, DMSO without substrate (quasi-positive control); (ii) 30 μL of the reaction mixture containing reaction buffer, substrate, ATP, DMSO without kinase (background control); (iii) 30 μL of the reaction mixture containing reaction buffer, substrate, kinase, ATP, DMSO (vehicle control). Final concentration of DMSO in the reaction was 2%. To detect the ADP amount produced during the kinase reaction, the commercially available kit ADP-Glo™ Kinase Assay (Promega, cat. No # V9103) was used. The protocol used for the detection was based on the Technical Bulletin of the ADP-Glo™ Kinase Assay (Promega) and was adapted to 96-well plate containing 30 μL reaction mixture as explained below. 30 μL of ADP-Glo™ Reagent was added to each well of a 96 well plate containing 30 μL of reaction mixture to terminate the kinase reaction and deplete the remaining ATP. The plate was incubated for 60 minutes on a shaker at rt. 60 μL of Kinase Detection Solution was then added to each well of 96-well plate containing 60 μL of the solution to convert ADP to ATP and to allow the newly synthesized ATP to be measured using a luciferase/luciferin reaction (ratio of kinase reaction volume to ADP Glo™ Reagent volume to Kinase Detection Solution volume was maintained at 1:1:2). The plate was incubated for 40 minutes on a shaker at rt, protected from light. Luminescence was measured in the plate reader, wherein the luminescent signal is proportional to the ADP concentration produced and thus correlates with kinase activity. After data normalization to controls (complete reaction mix and no-substrate control) and transforming X values (test compound concentrations) using: X=log(X), IC50 values were determined, using the GraphPad Prism 6.0 [log(agonist) vs. normalized response—Variable slope].

[2] = target: T2, DYRK1A (Homo sapiens, UniProt Q13627); assay: DYRK1A in vitro kinase assay (ADP-Glo); format: biochemical; conditions: ATP 70 μM (Km), substrate 3 μM, enzyme 2 nM or 0.7 nM, 30 min, rt
T2 construct: purchased Carna Bioscence (Carna Biosciences) 04-130
Procedure: The compounds of the present invention were tested for their inhibitory activity against DYRK1A and DYRK1B kinases once or several times. When tested more than once, the data are reported herein as average value, wherein the average value, also referred to as the mean value, represents the sum of obtained values divided by the number of times tested.
DYRK-inhibitory activity of the compounds of the present invention was tested using the ADP-Glo™ assay as described in the following paragraphs. The procedure for determining the IC50 values with the ADP-Glo™ assay in in vitro kinase assays consists of two parts:
1. Kinase reaction performed under optimized conditions;
2. Detection of ADP as a product of the reaction using ADP-Glo™ system (Promega).
The tested compounds indicated in Table 5 below were dissolved in DMSO, then transferred to the V-bottom PP plate to perform nine serial dilutions (in order to obtain dose-response curves) in 25% DMSO, as indicated in Table 5 below.
The optimized conditions for performing DYRK1A in vitro kinase assay were as follows:
For compound testing, the following protocol was used: two mixes were prepared on ice, Mix 1 containing substrate, ATP and reaction buffer and Mix 2 containing reaction buffer and the kinase. 15 μL per well of Mix 1 was transferred to wells of a 96-well plate. Next, 2.5 μL of the pre-diluted compound to be tested was added to Mix 1, followed by the addition of 12.5 μL of Mix 2. Total reaction volume was 30 μL per well. The experiment was performed in duplicate for each data point being examined. Dose response curve for the positive control was carried out on each assay plate by adding the reference inhibitory compound staurosporine. For each test, three controls were also included: (i) 30 μL of the reaction mixture containing: reaction buffer, ATP, kinase, DMSO without substrate (quasi-positive control); (ii) 30 μL of the reaction mixture containing reaction buffer, substrate, ATP, DMSO without kinase (background control); (iii) 30 μL of the reaction mixture containing reaction buffer, substrate, kinase, ATP, DMSO (vehicle control). Final concentration of DMSO in the reaction was 2%. To detect the ADP amount produced during the kinase reaction, the commercially available kit ADP-Glo™ Kinase Assay (Promega, cat. No # V9103) was used. The protocol used for the detection was based on the Technical Bulletin of the ADP-Glo™ Kinase Assay (Promega) and was adapted to 96-well plate containing 30 μL reaction mixture as explained below.
30 μL of ADP-Glo™ Reagent was added to each well of a 96 well plate containing 30 μL of reaction mixture to terminate the kinase reaction and deplete the remaining ATP. The plate was incubated for 60 minutes on a shaker at rt. 60 μL of Kinase Detection Solution was then added to each well of 96-well plate containing 60 μL of the solution to convert ADP to ATP and to allow the newly synthesized ATP to be measured using a luciferase/luciferin reaction (ratio of kinase reaction volume to ADP Glo™ Reagent volume to Kinase Detection Solution volume was maintained at 1:1:2). The plate was incubated for 40 minutes on a shaker at rt, protected from light. Luminescence was measured in the plate reader, wherein the luminescent signal is proportional to the ADP concentration produced and thus correlates with kinase activity.
After data normalization to controls (complete reaction mix and no-substrate control) and transforming X values (test compound concentrations) using: X=log(X), IC50 values were determined, using the GraphPad Prism 6.0 [log(agonist) vs. normalized response—Variable slope].

T1 sequence (Q9Y463 whole entry): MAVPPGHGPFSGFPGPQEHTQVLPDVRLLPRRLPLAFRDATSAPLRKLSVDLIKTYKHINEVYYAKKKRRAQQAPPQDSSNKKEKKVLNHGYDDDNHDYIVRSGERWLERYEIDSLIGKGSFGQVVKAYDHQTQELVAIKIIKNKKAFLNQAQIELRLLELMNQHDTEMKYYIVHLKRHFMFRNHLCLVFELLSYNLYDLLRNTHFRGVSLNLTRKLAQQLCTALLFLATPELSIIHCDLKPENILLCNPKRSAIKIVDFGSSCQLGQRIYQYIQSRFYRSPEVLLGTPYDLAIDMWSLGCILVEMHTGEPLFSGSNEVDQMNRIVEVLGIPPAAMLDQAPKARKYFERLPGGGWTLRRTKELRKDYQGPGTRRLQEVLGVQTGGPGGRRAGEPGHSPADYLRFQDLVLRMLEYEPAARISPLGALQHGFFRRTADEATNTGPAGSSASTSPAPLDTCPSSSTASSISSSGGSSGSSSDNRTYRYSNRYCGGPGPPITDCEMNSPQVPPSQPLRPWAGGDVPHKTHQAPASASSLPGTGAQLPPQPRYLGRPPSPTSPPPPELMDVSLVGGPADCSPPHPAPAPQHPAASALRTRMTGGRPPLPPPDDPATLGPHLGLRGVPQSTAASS

pIC50 [1] | pIC50 [2] | Structure (SMILES)
> 8.00 | > 8.00 | O=C(NCc1cccnc1)c1cnc2[nH]cc(-c3cc(F)c4nccc(-c5cccnc5)c4c3)c2c1 [Example 47, 3-[8-Fluoro-4-(pyridin-3-yl)quinolin-6-yl]-N-(pyridin-3-ylmethyl)-1H-pyrrolo[2,3-b]pyridine-5-carboxamide]
> 8.00 | > 8.00 | CNC(=O)c1cnc2[nH]cc(-c3ccc4ncc(N)c(N5CCC[C@H](N)C5)c4c3)c2c1 [Example 54, 3-{3-Amino-4-[(3S)-3-aminopiperidin-1-yl]quinolin-6-yl}-N-methyl-1H-pyrrolo[2,3-b]pyridine-5-carboxamide hydrochloride]
> 8.00 | > 8.00 | Fc1cc(-c2c[nH]c3ncccc23)cc2cccnc12 [Example 13, 8-Fluoro-6-{1H-pyrrolo[2,3-b]pyridin-3-yl}quinoline]
> 8.00 | 7.00 to 8.00 | C=CCN(C)C(=O)c1cnc2[nH]cc(-c3cc(Cl)c4ncccc4c3)c2c1 [Example 28, 3-(8-Chloroquinolin-6-yl)-N-methyl-N-(prop-2-en-1-yl)-1H-pyrrolo[2,3-b]pyridine-5-carboxamide]
> 8.00 | > 8.00 | c1ccc(-c2ccnc3ccc(-c4c[nH]c5ncccc45)cc23)cc1 [Example 8, 4-Phenyl-6-{1H-pyrrolo[2,3-b]pyridin-3-yl}quinoline]
> 8.00 | 7.00 to 8.00 | O=C(NCc1ccccc1)c1cnc2[nH]cc(-c3cc(F)c4nccc(-c5cccnc5)c4c3)c2c1 [Example 36, N-Benzyl-3-[8-fluoro-4-(pyridin-3-yl)quinolin-6-yl]-1H-pyrrolo[2,3-b]pyridine-5-carboxamide]
> 8.00 | > 8.00 | NCCCNC(=O)c1cnc2[nH]cc(-c3cc(F)c4ncccc4c3)c2c1 [Example 35, N-(3-Aminopropyl)-3-(8-fluoroquinolin-6-yl)-1H-pyrrolo[2,3-b]pyridine-5-carboxamide hydrochloride]
> 8.00 | 7.00 to 8.00 | CNC(=O)c1cnc2[nH]cc(-c3ccc4ncc(NCC5CCOCC5)c(N5CCOCC5)c4c3)c2c1 [Example 58, N-Methyl-3-[4-(morpholin-4-yl)-3-[(oxan-4-ylmethyl)amino]quinolin-6-yl]-1H-pyrrolo[2,3-b]pyridine-5-carboxamide]
> 8.00 | > 8.00 | c1cncc(-c2ccnc3ccc(-c4c[nH]c5ncccc45)cc23)c1 [Example 6, 4-(Pyridin-3-yl)-6-{1H-pyrrolo[2,3-b]pyridin-3-yl}quinoline]
> 8.00 | > 8.00 | c1cnc2ccc(-c3c[nH]c4ncccc34)cc2c1 [Example 2, 6-{1H-Pyrrolo[2,3-b]pyridin-3-yl}quinoline]
> 8.00 | > 8.00 | O=C(NCc1ccccc1)c1cnc2[nH]cc(-c3cc(F)c4ncccc4c3)c2c1 [Example 31, N-Benzyl-3-(8-fluoroquinolin-6-yl)-1H-pyrrolo[2,3-b]pyridine-5-carboxamide]
> 8.00 | > 8.00 | N[C@@H]1CCCN(c2ccnc3c(F)cc(-c4c[nH]c5ncc(CNCc6ccccc6)cc45)cc23)C1 [Example 51, (3R)-1-(6-{5-[(Benzylamino)methyl]-1H-pyrrolo[2,3-b]pyridin-3-yl}-8-fluoroquinolin-4-yl)piperidin-3-amine]
> 8.00 | 7.00 to 8.00 | CNC(=O)c1cnc2[nH]cc(-c3ccc4ncc(NCc5cccc(Cl)c5)c(N5CCOCC5)c4c3)c2c1 [Example 56, 3-(3-{[(3-Chlorophenyl)methyl]amino}-4-(morpholin-4-yl)quinolin-6-yl)-N-methyl-1H-pyrrolo[2,3-b]pyridine-5-carboxamide]
< 7.00 | < 7.00 | C=CCN(C)C(=O)c1cnc2[nH]cc(-c3cc(OC)c4ncccc4c3)c2c1 [Example 26, 3-(8-Methoxyquinolin-6-yl)-N-methyl-N-(prop-2-en-1-yl)-1H-pyrrolo[2,3-b]pyridine-5-carboxamide]
> 8.00 | 7.00 to 8.00 | C=CCN(C)C(=O)c1cnc2[nH]cc(-c3cc(F)c4nccc(-c5cccnc5)c4c3)c2c1 [Example 38, 3-[8-Fluoro-4-(pyridin-3-yl)quinolin-6-yl]-N-methyl-N-(prop-2-en-1-yl)-1H-pyrrolo[2,3-b]pyridine-5-carboxamide]
> 8.00 | > 8.00 | Fc1cc(-c2c[nH]c3ncc(CNCc4ccccc4)cc23)cc2c(-c3cccnc3)ccnc12 [Example 50, Benzyl({3-[8-fluoro-4-(pyridin-3-yl)quinolin-6-yl]-1H-pyrrolo[2,3-b]pyridin-5-yl}methyl)amine]
7.00 to 8.00 | 7.00 to 8.00 | N[C@H]1CC[C@H](Nc2c([N+](=O)[O-])cnc3ccc(-c4c[nH]c5ncc(C(=O)NCc6cccnc6)cc45)cc23)CC1 [Example 59, 3-{4-[(4-Aminocyclohexyl)amino]-3-nitroquinolin-6-yl}-N-(pyridin-3-ylmethyl)-1H-pyrrolo[2,3-b]pyridine-5-carboxamide hydrochloride]
> 8.00 | > 8.00 | Fc1cc(-c2c[nH]c3ncccc23)cc2c(-c3cccnc3)ccnc12 [Example 19, 8-Fluoro-4-(pyridin-3-yl)-6-{1H-pyrrolo[2,3-b]pyridin-3-yl}quinoline]

Structure (SMILES) | pIC50 [1] | pIC50 [2]
CN1CCC(N(C)c2c([N+](=O)[O-])cnc3ccc(-c4c[nH]c5ncccc45)cc23)CC1 [Example 65, N-Methyl-N-(1-methylpiperidin-4-yl)-3-nitro-6-{1H-pyrrolo[2,3-b]pyridin-3-yl}quinolin-4-amine] | 7.00 to 8.00 | 7.00 to 8.00
